Data published in patent US20230382871A1, “CSF1R KINASE INHIBITOR AND USE THEREOF” (SHANGHAI INSTITUTE OF MATERIA MEDICA, CHINESE ACADEMY OF …, priority 2020, published 2023).

Legend:
[1] = tested on: phosphorylated AKT (p-AKT) in BMDM; assay: Western blot of CSF1-stimulated AKT phosphorylation in BMDM; assay type: cell-based; conditions: Mus musculus, 100 nM, 2 h, CSF1 50 ng/mL 15 min
Description: Bone marrow-derived macrophages, after induction by CSF1 for 5 to 7 days, were centrifuged to remove the previous medium. 2 mL of a serum-free medium was added. […] CSF1 factor was added at a final concentration of 50 ng/mL for stimulation for 15 minutes. The culture medium was discarded, and cells were washed three times with pre-cooled PBS. Then, the cells were lysed by adding 1×SDS gel loading buffer. The cell lysates were heated in a boiling water bath for 15 min, and then stored at −20° C.
A protein sample as described above was subjected to SDS-PAGE electrophoresis. Then, the protein was transferred to a nitrocellulose membrane using a semi-dry electrotransfer system. The nitrocellulose membrane was placed in a blocking solution (5% skim milk in TBS-T) and incubated for 2 h at room temperature. Then, the membrane was allowed to react with a primary antibody overnight at 4° C. After the membrane was washed with TBS-T for three times with 15 min each time, the membrane was allowed to react in a secondary antibody dilution at room temperature for 1-2 h. […]
The inhibitory effect of Compound I on CSF1R and its signaling pathway in mouse primary macrophages was detected by immunoblotting assays. Each experiment was independently repeated three times and all experimental results were quantified. […]

[2] = tested on: human colorectal cancer HT-29 subcutaneous xenografts; assay: Human colorectal cancer HT-29 subcutaneous xenografts in nude mice; assay type: in vivo, BALB/c nude mice; conditions: for Body Weight (g) D 21 / RTV (mean ± SD) / TV (mm3, mean ± SD) D 21: D 21; for T/C (%): Day 21
Source text: BALB/c female nude mice of 6 weeks old were used, and were provided by Shanghai Lingchang Biotechnology Co., Ltd.
Human colorectal cancer HT-29 cells were subcutaneously inoculated into the right axillary fossa of a nude mouse (5×10^6 cells/mouse). After a xenograft was formed, the tumor was transferred to a nude mouse for 1 passage.
Tumor tissues at the vigorous growth stage were removed and cut into pieces of approximately 1.5 mm^3. The tumor fragments were inoculated subcutaneously into the right axillary fossa of nude mice under aseptic conditions. The diameters of the subcutaneous xenografts in nude mice were measured with a vernier caliper. The animals were randomly grouped after the xenografts reached an average volume of about 120 mm^3. Compound I was administered orally at doses of 20 mg/kg, 10 mg/kg and 5 mg/kg twice a day for 21 consecutive days. An equal volume of a blank preparation was administered orally twice a day for 21 consecutive days. The positive control drug Axitinib was administered orally at a dose of 40 mg/kg group twice a day for 21 consecutive days. An equal volume of water for injection was administered to the animals in the solvent group. Throughout the experiment, the diameters of the xenografts were measured twice a week and the mice were weighed at the same time. The tumor volume (TV) was calculated as TV=½×a×b^2, where “a” and “b” denote the length and width of a tumor, respectively. The relative tumor volume (RTV) was calculated from the measurement results with the calculation formula RTV=Vt/V0, in which V0 is the tumor volume measured upon administration after grouping (i.e., D0) and Vt is the tumor volume from each measurement. The evaluation index of anti-tumor activity is the relative tumor proliferation rate T/C (%), which is calculated as T/C (%)=(TRTV/CRTV)×100%, in which TRTV denotes the RTV from the treatment group and CRTV denotes the RTV from solvent group.

[3] = tested on: macrophage marker F4/80 in U87MG tumor tissues; assay: Immunohistochemistry of macrophage marker F4/80 in U87MG tumor tissues; assay type: in vivo, nude mice; conditions: 40 mg/kg, compared with blank preparation group
Description: At the end of the in vivo experiments, U87MG and HT-29 xenografts in nude mice were removed and fixed with […] to prepare paraffin sections.
Expression of individual proteins was assessed using multiplicative quick score method (MQS). This evaluation method takes into account both the staining intensity and the staining range. The method estimates the proportion of positive cells and gives a range score from 1 to 6 (1=1%-4%; 2=5%-19%; 3=20%-39%; 4=40%-59%; 5=60%-79%; 6=80%-100%). The average intensity score of positive stained cells was 0 to 3 (0=no staining; 1=weak staining; 2=moderate staining; 3=strong staining). The total score a (minimum 0 and maximum 18) is then calculated by multiplying the range score by the intensity score.
For detecting the changes in the macrophage marker F4/80 and M2-type macrophage marker CD206 in the U87MG tumor tissues, quantitative analysis (solvent: n=6, blank preparation: n=6, Compound I (10 mg/kg): n=6, Compound I (20 mg/kg): n=6, Compound I (40 mg/kg): n=6, Axitinib: n=4) was performed on all sections and the experimental data were analyzed for significant differences using the t-test. * denotes p<0.05 as compared with the blank preparation group, ** denotes p<0.01 as compared with the blank preparation group, and denotes p<0.001 as compared with the blank preparation group.

## Cc1cc(NC(=O)c2cccc3cc(-c4cccc5[nH]nc(N)c45)ccc23)ccc1F [Compound I]
[1]
  inhibition at 0.1 µM: 64.4%
[2]; 5 mg/kg bid × 21 po
  Body Weight (g) D 0: 19.7 g
  TV (mm3, mean ± SD) D 0: 113 ± 28 mm3
  Body Weight (g) D 21: 18.6 g
  RTV (mean ± SD): 3.76 ± 0.87
  TV (mm3, mean ± SD) D 21: 427 ± 157 mm3
  T/C (%): 42.70%
[2]; 10 mg/kg bid × 21 po
  Body Weight (g) D 0: 19.8 g
  TV (mm3, mean ± SD) D 0: 120 ± 33 mm3
  Body Weight (g) D 21: 18.1 g
  RTV (mean ± SD): 2.75 ± 1.04
  TV (mm3, mean ± SD) D 21: 336 ± 173 mm3
  T/C (%): 31.27%
[2]; 20 mg/kg bid × 21 po
  Body Weight (g) D 0: 20.1 g
  TV (mm3, mean ± SD) D 0: 121 ± 35 mm3
  Body Weight (g) D 21: 18.2 g
  RTV (mean ± SD): 1.53 ± 0.25
  TV (mm3, mean ± SD) D 21: 188 ± 69 mm3
  T/C (%): 17.38%
[3]
  expression of F4/80 in macrophages, U87MG tumor tissue: significantly reduced
